Measured values: patent US5817690A, “4-aminoethoxy indolone derivatives” (American Home Products Corporation, priority 1997, dated 1998)

Target: T1, dopamine D-2 receptor (D2 Spiper) (Rattus norvegicus, UniProt P61169)
T1 construct: homogenized limbic brain tissue is incubated with; from tissue; host or cells: limbic brain tissue homogenate
Experiment: 3H-spiroperidol (Spiper.) binding in homogenized limbic brain tissue, affinity for the dopamine D-2 receptor

T1 sequence (P61169 whole entry): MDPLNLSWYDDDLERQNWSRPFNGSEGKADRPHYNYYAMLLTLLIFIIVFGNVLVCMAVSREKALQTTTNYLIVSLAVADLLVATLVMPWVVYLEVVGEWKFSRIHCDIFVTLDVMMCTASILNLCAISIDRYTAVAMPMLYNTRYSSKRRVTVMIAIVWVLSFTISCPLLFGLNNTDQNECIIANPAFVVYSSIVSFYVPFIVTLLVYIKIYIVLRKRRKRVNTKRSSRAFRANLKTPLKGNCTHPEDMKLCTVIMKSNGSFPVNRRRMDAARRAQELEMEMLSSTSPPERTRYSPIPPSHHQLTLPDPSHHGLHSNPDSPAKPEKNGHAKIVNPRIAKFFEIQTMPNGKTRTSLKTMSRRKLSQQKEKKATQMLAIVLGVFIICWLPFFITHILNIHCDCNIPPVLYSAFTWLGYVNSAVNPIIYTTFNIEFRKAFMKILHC

IC50 [nM]	Compound
145	O=C1Cc2c(cccc2OCCNCc2ccccc2)N1 [Example 1, 4-(2-Benzylaminoethoxy)-1,3-dihydro-indol-2-one]
918	CNCCOc1cccc2c1CC(=O)N2 [Example 2, 4-(2-Methylamino-ethoxy)-1,3-dihydro-indol-2-one]
3420	NCCOc1cccc2c1CC(=O)N2 [Example 3, 4-(2-Amino-ethoxy)-1,3-dihydro-indol-2-one]
176	O=C1Cc2c(OCCNCc3ccc(F)cc3)ccc(Cl)c2N1 [Example 4]
51.9	O=C1Cc2c(OCCNCc3ccc(Cl)cc3)ccc(Cl)c2N1 [Example 5]
37.5	Cc1ccc(CNCCOc2ccc(Cl)c3c2CC(=O)N3)cc1 [Example 6]
231	CN(CCOc1ccc(Cl)c2c1CC(=O)N2)Cc1ccccc1 [Example 7, 4-[2-(N-Benzyl-N-methyl-amino)-ethoxy]-7-chloro-1,3dihydro-indol-2-one]
144	CCCCNCCOc1ccc(Cl)c2c1CC(=O)N2 [Example 8, 4-(2-Butylamino-ethoxy)-7-chloro-1,3-dihydro-indol-2-one]
81.4	O=C1Cc2c(OCCN3CCc4ccccc4C3)ccc(Cl)c2N1 [Example 9, 7-Chloro-4-[2-(3,4-dihydro-1H-isoguinolin-2-yl)-ethoxy]-1,3-dihydro-indol-2-one]
25	O=C1Cc2c(cccc2OCCNCCCCc2ccccc2)N1 [Example 13]
36	O=C1Cc2c(OCCNCc3ccccc3)ccc(Cl)c2N1 [Example 14, 4-(2-Benzylamino-ethoxy)-7-chloro-1,3-dihydro-indol-2-one]
68.7	O=C1Cc2c(OCCNCc3ccccc3)ccc(F)c2N1 [Example 15, 4-(2-Benzylamino-ethoxy)-7-fluoro-1,3-dihydro-indol-2-one]
99.4	O=C1Cc2c(OCCNCC3CCCCC3)ccc(F)c2N1 [Example 16, 4-[2-(Cyclohexylmethyl-amino)-ethoxy)-7-fluoro-1,3-dihydro-indol-2one]
645	CN(CCOc1cccc2c1CC(=O)N2)Cc1ccccc1 [Example 25, 4-[2-(Benzyl-methyl-amino)-ethoxy]-1,3-dihydro-indol-2-one]
346	CN(CCCC(=O)c1ccc(F)cc1)CCOc1cccc2c1CC(=O)N2 [Example 27, 4-(2-{[4-(4-Fluoro-phenyl)-4-oxo-butyl]-methyl-amino}-ethoxy)-1,3-dihydro-indol-2-one]
